Results taken from PubChem BioAssay AID1963871 (Molecular Pharmacology Branch, DTP, NCI, 2024).

Test system: KRAS-mutant PDC multicell tumor spheroid viability
Experiment: Anticancer human tumor 521955-158-R2-J5-PDC patient-derived pancreatic carcinoma cell line growth inhibition [KRAS2]
Conditions: for IC50: curve of first compound; for viability, T/C: stronger effect = lower value
How it was run: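 KRAS-mutant tumor cells were grown as spheroids with HUVEC endothelial cells and human MSCs as stroma. Targeted agents were tested alone and with KRAS pathway inhibitors. Doses started at or near clinical Cmax, or 10 microM, descending half-log.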

[1] = second compound 0.1 µM, first compound 0.0316 µM
[2] = second compound 0.1 µM, first compound 0.1 µM
[3] = second compound 0.1 µM, first compound 0.316 µM
[4] = second compound 0.1 µM, first compound 1 µM
[5] = second compound 0.1 µM, first compound 3.16 µM
[6] = second compound 0.316 µM, first compound 0.0316 µM
[7] = second compound 0.316 µM, first compound 0.1 µM
[8] = second compound 0.316 µM, first compound 0.316 µM
[9] = second compound 0.316 µM, first compound 1 µM
[10] = second compound 0.316 µM, first compound 3.16 µM
[11] = second compound 1 µM, first compound 0.0316 µM
[12] = second compound 1 µM, first compound 0.1 µM
[13] = second compound 1 µM, first compound 0.316 µM
[14] = second compound 1 µM, first compound 1 µM
[15] = second compound 1 µM, first compound 3.16 µM
[16] = second compound 3.16 µM, first compound 0.0316 µM
[17] = second compound 3.16 µM, first compound 0.1 µM
[18] = second compound 3.16 µM, first compound 0.316 µM
[19] = second compound 3.16 µM, first compound 1 µM
[20] = second compound 3.16 µM, first compound 3.16 µM
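Also: viability read after seven days of drug exposure.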

| Structure (SMILES) | IC50 (second compound 0.1 µM) [nM] | IC50 (second compound 0.316 µM) [nM] | IC50 (second compound 1 µM) [nM] | IC50 (second compound 3.16 µM) [nM] | viability, T/C [1] [%] | viability, T/C [2] [%] | viability, T/C [3] [%] | viability, T/C [4] [%] | viability, T/C [5] [%] | viability, T/C [6] [%] | viability, T/C [7] [%] | viability, T/C [8] [%] | viability, T/C [9] [%] | viability, T/C [10] [%] | viability, T/C [11] [%] | viability, T/C [12] [%] | viability, T/C [13] [%] | viability, T/C [14] [%] | viability, T/C [15] [%] | viability, T/C [16] [%] | further results |
| --- | --- | --- | --- | --- | --- | --- | --- | --- | --- | --- | --- | --- | --- | --- | --- | --- | --- | --- | --- | --- | --- |
| CC1OCC2(CCN(c3cnc(Sc4ccnc(N)c4Cl)c(N)n3)CC2)C1N (stereo not given) + C=CC(=O)N1CCN(c2nc(OCC3CCCN3C)nc3c2CCN(c2cccc4cccc(C)c24)C3)CC1CC#N | > 10000 | > 10000 | > 10000 | < 31.6 | 99.8 | 88.1 | 74.5 | 68.6 | 63.3 | 84.5 | 84.4 | 65.4 | 59.2 | 65.9 | 84.8 | 70.7 | 59.2 | 56.9 | 57.4 | 15.1 | IC50 (second compound 0.0316 µM): > 10000 nM; viability, T/C (second compound 0.0316 µM, first compound 0.0316 µM): 92.9%; viability, T/C (second compound 0.0316 µM, first compound 0.1 µM): 79%; viability, T/C (second compound 0.0316 µM, first compound 0.316 µM): 75.2%; viability, T/C (second compound 0.0316 µM, first compound 1 µM): 63.5%; viability, T/C (second compound 0.0316 µM, first compound 3.16 µM): 60%; viability, T/C (second compound 0.0316 µM, first compound 10 µM): 70.8%; viability, T/C (second compound 0.1 µM, first compound 10 µM): 66.6%; viability, T/C (second compound 0.316 µM, first compound 10 µM): 58.4%; viability, T/C (second compound 1 µM, first compound 10 µM): 55.5%; viability, T/C [17]: 13.1%; viability, T/C [18]: 15.4%; viability, T/C [19]: 13%; viability, T/C [20]: 5.45%; viability, T/C (second compound 3.16 µM, first compound 10 µM): 5.43% |
| CC(=O)OC12COC1CC(O)C1(C)C(=O)C(O)C3=C(C)C(OC(=O)C(O)C(NC(=O)OC(C)(C)C)c4ccccc4)CC(O)(C(OC(=O)c4ccccc4)C21)C3(C)C (stereo not given) + CC1OCC2(CCN(c3cnc(Sc4ccnc(N)c4Cl)c(N)n3)CC2)C1N | < 10 | < 10 | < 10 | < 10 | 15.3 | 11.9 | 14.5 | 16.1 | 19.7 | 15.3 | 14 | 11.1 | 17.7 | 18.2 | 13 | 11.2 | 13.1 | 15.6 | 20.7 | 15.9 | IC50 (second compound 10 µM): < 10 nM; viability, T/C (second compound 0.1 µM, first compound 0.01 µM): 26.4%; viability, T/C (second compound 0.316 µM, first compound 0.01 µM): 25.1%; viability, T/C (second compound 1 µM, first compound 0.01 µM): 19.7%; viability, T/C (second compound 3.16 µM, first compound 0.01 µM): 21.2%; viability, T/C [17]: 14.5%; viability, T/C [18]: 12.7%; viability, T/C [19]: 19.5%; viability, T/C [20]: 23.2%; viability, T/C (second compound 10 µM, first compound 0.01 µM): 22.1%; viability, T/C (second compound 10 µM, first compound 0.0316 µM): 15.9%; viability, T/C (second compound 10 µM, first compound 0.1 µM): 15.2%; viability, T/C (second compound 10 µM, first compound 0.316 µM): 17.3%; viability, T/C (second compound 10 µM, first compound 1 µM): 14.6%; viability, T/C (second compound 10 µM, first compound 3.16 µM): 22.3% |
